In PMC9785278, “3-(1,2,3-Triazol-4-yl)-β-Carbolines and 3-(1H-Tetrazol-5-yl)-β-Carbolines: Synthesis and Evaluation as Anticancer Agents” (Pharmaceuticals, 2022):

How the values were obtained:
HEPG2 cells = assay: SRB antiproliferative assay, HEPG2; type: cell-based, human; conditions: 48 h of treatment, mean ± SEM
Description: (§1) Human colorectal adenocarcinoma HCT116 cell lines expressing p53 and its p53-null isogenic derivative (HCT116 p53^−/−) were provided by B. Vogelstein (The Johns Hopkins Kimmel Cancer Center, Baltimore, MD, USA). Human colorectal adenocarcinoma SW837, HT29, pancreatic carcinoma PANC-1, breast adenocarcinoma MCF-7, hepatocarcinoma HEPG2, melanoma A375, normal human foreskin fibroblasts HFF-1, and normal human colon CCD-18Co cell lines were purchased from ATCC (Rockville, MD, USA). The cancer cell lines were routinely cultured with RPMI-1640 medium from Biowest (HCT116, HCT116 p53^−/−, SW837, HT29, A375, MCF-7, HEPG-2, and […]) or DMEM with 5% glucose (HFF-1) and supplemented with 10% fetal bovine serum from Gibco (Alfagene, Lisboa, Portugal). All cells were maintained in a humidified incubator at 37 °C and 5% CO2.
(§2) Human cell lines were seeded in 96-well plates at a density of 5.0 × 10^3 (HCT116 p53 ^−/−, HCT116 wt, HT29, SW837, CCD-18Co, HFF-1, and MCF-7 cell lines) or 4.5 × 10^3 (A375, HEPG2 and PANC-1 cell lines) cells per well, for 24 h. Cells were treated with the appropriate compound, with serial dilutions ranging from 0.2 to 50 µM, for 48 h. Following the incubation, the effects on cell proliferation were evaluated through the SRB assay as stated by Ramos et al.. The IC50 values were determined using the software GraphPad Prism version 9.0.

HCT116 cells [1] = assay: SRB antiproliferative assay, HCT116 (wt p53); type: cell-based; conditions: Homo sapiens, HCT-116, 48 h of treatment, mean ± SEM
Description: as §1, §2

SW837 cells = assay: SRB antiproliferative assay, SW837; type: cell-based; conditions: Homo sapiens, 48 h of treatment, mean ± SEM
Description: as §1, §2

A375 cells = assay: SRB antiproliferative assay, A375; type: cell-based, human; conditions: 48 h of treatment, mean ± SEM
Description: as §1, §2

MCF-7 cells = assay: SRB antiproliferative assay, MCF-7; type: cell-based, human; conditions: 48 h of treatment, mean ± SEM
Description: as §1, §2

HCT116 p53−/− cells = assay: SRB antiproliferative assay, HCT116 p53−/−; type: cell-based; conditions: Homo sapiens, HCT-116, 48 h of treatment, p53 knockout, mean ± SEM
Description: as §1, §2

PANC-1 cells = assay: SRB antiproliferative assay, PANC-1; type: cell-based, human; conditions: 48 h of treatment, mean ± SEM
Description: as §1, §2

HT29 cells = assay: SRB antiproliferative assay, HT29; type: cell-based; conditions: Homo sapiens, HT-29, 48 h of treatment, mean ± SEM
Description: as §1, §2

[2] = test system: breast adenocarcinoma (MCF-7); parameters: method as in PMID 31247374; conditions: cited from earlier work
CCD-18Co cells = assay: SRB cytotoxicity assay, normal colon CCD-18Co; type: cell-based; conditions: 48 h of treatment, normal human colon cell line, mean ± SEM
Description: as §1, §2

HCT116 cells [3] = assay: Annexin-V apoptosis assay, HCT116; type: cell-based, human; conditions: HCT116, 4.5 and 9.0 μM, 48 h, flow cytometry PI/Annexin-V
Method: The analysis of apoptotic cell death was performed essentially as described by Ramos et al.. Briefly, 1.5 × 10^5 HCT116 cells/well were seeded in 6-well plates, allowed to adhere overnight, and then treated with 4.5 and 9.0 μM of compound 1a. After 48 h of treatment, cells were stained using the Annexin V-FITC Apoptosis Detection Kit I from BD Biosciences (Enzifarma, Porto, Portugal), according to the manufacturer’s instructions. The AccuriTM C6 flow cytometer and the BD Accuri C6 software (BD Biosciences) were used.

HFF-1 cells = assay: SRB assay, normal foreskin fibroblasts HFF-1; type: cell-based; conditions: 48 h of treatment, normal human foreskin fibroblasts, mean ± SEM
Description: as §1, §2

[4] = test system: ovarian carcinoma (OVCAR-3); parameters: method as in PMID 31247374; conditions: cited from earlier work
leukemia (K-562) = test system: leukemia (K-562); parameters: method as in PMID 31247374; conditions: cited from earlier work
[5] = test system: renal adenocarcinoma (786-0); parameters: method as in PMID 31247374; conditions: cited from earlier work

Compound | IC50 (HCT116 cells [1]) | IC50 (SW837 cells) | IC50 (HCT116 p53−/− cells) | IC50 (HT29 cells) | IC50 (CCD-18Co cells) | melting point | also measured
c1ccc(Cn2nnnc2-c2cc3c([nH]c4ccccc43)c(-c3ccccc3)n2)cc1 [1a] | 4.5 ± 0.05 µM | 44 ± 0.82 µM | 4.6 ± 0.43 µM | 9 ± 0.55 µM | 26 ± 0.82 µM |  | IC50 (HEPG2 cells; listed as C00001): 7.5 ± 1.27 µM; IC50 (HEPG2 cells; Homo sapiens, HepG2, 48 h): < 8 µM; IC50 (A375 cells; listed as C00001): 5.6 ± 0.2 µM; IC50 (A375 cells; Homo sapiens, A-375, 48 h): < 8 µM; IC50 (MCF-7 cells; listed as C00001): 7.7 ± 0.7 µM; IC50 (MCF-7 cells; Homo sapiens, MCF7, 48 h): < 8 µM; IC50 (PANC-1 cells; listed as C00001): 4 ± 0.4 µM; IC50 (PANC-1 cells; Homo sapiens, PANC-1, 48 h): < 8 µM; IC50 [2]: 4.4 µM; Apoptotic cell death (Annexin-positive cells) (HCT116 cells [3]): associated with apoptotic cell death; IC50 (HFF-1 cells): 29 ± 1.5 µM
COc1ccc(-c2nc(-c3nnnn3Cc3ccccc3)cc3c2[nH]c2ccccc23)cc1 [1b] | 4.3 ± 0.08 µM | 25 ± 1.63 µM | 4.2 ± 0.31 µM | 5.9 ± 1.19 µM | 3.4 ± 0.29 µM |  | 
Fc1ccc(-c2nc(-c3nnnn3Cc3ccccc3)cc3c2[nH]c2ccccc23)cc1 [1c] | 3.4 ± 0.16 µM | 29 ± 3.74 µM | 3.3 ± 0.73 µM | 9.6 ± 1.18 µM | 7.5 ± 0.16 µM |  | IC50 [2]: < 1 µM; IC50 [4]: < 1 µM; IC50 (leukemia (K-562)): < 1 µM; IC50 [5]: < 1 µM
Fc1ccc(-c2nc(-c3nnn[nH]3)cc3c2[nH]c2ccccc23)cc1 [1d] |  |  |  |  |  |  | IC50 [4]: 0.27 µM
Clc1ccc(-n2cc(-c3cc4c([nH]c5ccccc54)c(-c4ccccc4)n3)nn2)cc1 [13a, 3-(1-(p-Chlorophenyl)-1H-1,2,3-triazol-4-yl)-1-phenyl-β-carboline] | 39 ± 2.16 µM | > 50 µM | 43 ± 0.82 µM | > 50 µM | > 50 µM | 207.5 to 207.9 °C | 
Fc1ccc(-c2nc(-c3cn(-c4ccc(Cl)cc4)nn3)cc3c2[nH]c2ccccc23)cc1 [13b, 3-(1-(p-Chlorophenyl)-1H-1,2,3-triazol-4-yl)-1-(p-fluorophenyl)-β-carboline] | > 50 µM | > 50 µM | > 50 µM | > 50 µM | > 50 µM | 237.3 to 238.1 °C | 
COc1ccc(-c2nc(-c3cn(-c4ccc(Cl)cc4)nn3)cc3c2[nH]c2ccccc23)cc1 [13c, 3-(1-(p-Chlorophenyl)-1H-1,2,3-triazol-4-yl)-1-(p-methoxyphenyl)-β-carboline] | 32 ± 2.45 µM | > 50 µM | > 50 µM | > 50 µM | > 50 µM | 219.7 to 221.3 °C | 
CN(C)c1ccc(-c2nc(-c3cn(-c4ccc(Cl)cc4)nn3)cc3c2[nH]c2ccccc23)cc1 [13d, 3-(1-(p-Chlorophenyl)-1H-1,2,3-triazol-4-yl)-1-(p-dimethylaminophenyl)-β-carboline] | > 50 µM | > 50 µM | > 50 µM | > 50 µM | > 50 µM | 244.2 to 245.6 °C | 
O=[N+]([O-])c1cccc(-c2nc(-c3cn(-c4ccc(Cl)cc4)nn3)cc3c2[nH]c2ccccc23)c1 [13e, 3-(1-(p-Chlorophenyl)-1H-1,2,3-triazol-4-yl)-1-(m-nitrophenyl)-β-carboline] | > 50 µM | > 50 µM | > 50 µM | > 50 µM | > 50 µM | 237.3 to 239.1 °C | 
Clc1ccc(-n2cc(-c3cc4c([nH]c5ccccc54)c(-c4ccccc4Cl)n3)nn2)cc1 [13f, 3-(1-(p-Chlorophenyl)-1H-1,2,3-triazol-4-yl)-1-(o-chlorophenyl)-β-carboline] | > 50 µM | > 50 µM | > 50 µM | > 50 µM | > 50 µM | 219.7 to 221.3 °C | 
COC(=O)c1cc2c([nH]c3ccccc32)c(-c2ccccc2)n1 [14a] | > 50 µM |  | > 50 µM |  |  |  | 
COC(=O)c1cc2c([nH]c3ccccc32)c(-c2ccc(OC)cc2)n1 [14b] | > 50 µM |  | > 50 µM |  |  |  | 
COC(=O)c1cc2c([nH]c3ccccc32)c(-c2ccc(N(C)C)cc2)n1 [14c] | 15 ± 1.41 µM |  | 18 ± 0.47 µM |  |  |  | 
COC(=O)c1cc2c([nH]c3ccccc32)c(-c2cccc([N+](=O)[O-])c2)n1 [14d] | > 50 µM |  | > 50 µM |  |  |  | 
COC(=O)c1cc2c([nH]c3ccccc32)c(-c2ccccc2Cl)n1 [14e] | > 50 µM |  | > 50 µM |  |  |  | 
COc1cc([C@@H]2c3cc4c(cc3[C@@H](O[C@@H]3O[C@@H]5CO[C@@H](C)O[C@H]5[C@H](O)[C@H]3O)[C@H]3COC(=O)[C@H]23)OCO4)cc(OC)c1O [Etoposide, reference compound] | 0.6 ± 0.05 µM | 0.9 ± 0.07 µM | 0.9 ± 0.07 µM | 0.7 ± 0.1 µM | 0.5 ± 0.07 µM |  | IC50 (HEPG2 cells; Homo sapiens, HepG2, 48 h): 1.7 ± 0.2 µM; IC50 (A375 cells; Homo sapiens, A-375, 48 h): 0.9 ± 0.07 µM; IC50 (MCF-7 cells; Homo sapiens, MCF7, 48 h): 2.1 ± 0.03 µM; IC50 (PANC-1 cells; Homo sapiens, PANC-1, 48 h): 3.1 ± 0.05 µM; IC50 (HFF-1 cells): 1.1 ± 0.01 µM
